Assay results as given in patent US4873238A, “2-Pyridinecarbothioamides and pharmaceutical compositions comprising the same” (American Home Products Corporation, priority 1988, dated 1989).
Counter-ions that a name gives are not always drawn.

What was measured:
[1] = tested on: gastric mucosal lesions produced by ethanol; test: Ethanol induced cytotoxicity in rats (prevention of gastric mucosal lesions); format: in vivo, Male Sprague-Dawley rats; conditions: for ED50: Rattus norvegicus, po; for % Inhibition of lesion formation: 10 mg/kg oral, 1 hour prior to ethanol, rat
Description: The purpose of this assay is to evaluate the effectiveness of the compounds of the present invention in preventing the formation of gastric mucosal lesions produced by ethanol. The assay is based on A. Robert et al., Gastroenterology 77, 433-443 (1979). Male Sprague-Dawley rats weighing between 120-150 grams were fasted for 24 hours prior to the experiment (water ad libitum). At least two hours before dosing, the animals were placed in individual cages with wire grid bottoms and denied access to water. Ethanol was administered orally at 1 mL per animal. The compounds of the present invention were dissolved in water or suspended in water with 0.5% carboxymethylcellulose and administered orally at a dose based on an appropriate standard giving ED50 to ED75 response of cytoprotective activity. The rats were randomly divided into groups of equal number, ordinarily 10 to a group. The rats were weighed and the individual weights were recorded. Exactly 1 hour prior to the administration of ethanol, the screening group was treated with the compounds of the present invention and the control group with the vehicle. One hour after administering the ethanol, the animals were euthanized. The stomachs were removed, cut along the greater curvature, and cleansed of all debris with tap water. The stomachs were set aside and kept moist with saline until the lesions were scored. Macroscopic lesions on the gastric mucosa were numerically graded. The final grade assigned a stomach was the sum of all the grades. Streaks longer than 6 mm are graded in multiples of 2 mm. The degree of cytotoxicity occuring in each group is represented as the mean ±SE ulcer grade. The mean of each treatment group was compared to the control group and expressed as the % inhibition of lesion formation.

[2] = tested on: stress-induced ulcers; test: Stress-induced gastric ulcers in rats; format: in vivo, Male rats; conditions: oral or parenteral, usually 15 to 45 minutes prior to stress; restraint at 4-5 °C for 3 hours; sodium taurocholate 20 mg p.o.; rat; read-out: Stress-Induced Ulcer ED50
Description: The purpose of this assay is to evaluate the effectiveness of the compounds of the present invention in preventing stress-induced ulcers. Male rats (280-380 g) were fasted for 18 hours (water available ad libitum) prior to use in experiments. Eight to twelve rats were used per group. Drug solutions or suspensions were prepared in physiological saline solution. Suspensions were prepared with the aid of 0.5% carboxymethylcellulose in physiological saline solution. Drugs were administered orally or parenterally at predetermined intervals (usually 15 to 45 minutes) prior to stress. This test procedure is according to the method of Senay et al., Proc. Soc. Exp. Biol. Med. 124, 1221 (1967), modified to produce a more consistent ulcer incidence. After drug administration, the rats were immobilized in metallic restrainers and placed in a cold room at 4°-5° C. for 3 hours before they were euthanized. Each rat was given 20 mg of sodium taurocholate p.o. immediately before placing it in the restrainer. After euthanizing the rats, the stomachs were excised and examined. Macroscopic ulcers were subjectively assigned a grade from 1 to 3 on the basis of increasing size. The number of ulcers in each size category was determined and multiplied by the respective grade; the addition of the resultant values gave the cumulative ulcer score. The average cumulative ulcer score of each […] group was compared to that of the control group and the percent inhibition of ulcer formation was calculated. When the responses obtained were directly proportional to the doses employed, ED50 values were determined from the dose-response curves obtained.

[3] = tested on: ethanol-induced ulcer; conditions: antisecretory agents; cited from earlier work

Question: What does the source list for S=C(Nc1cccc(CN2CCCCC2)c1)c1ccccn1 [Example 6, N-[3-(piperidinylmethyl)phenyl]-2-pyridinecarbothioamide]?
Answer: ED50 [1]: 5.3 mg/kg; ED50 [2]: 4.6 mg/kg

Question: For S=C(Nc1cccc(CN2CCSCC2)c1)c1ccccn1 [Example 9, N-[3-[(4-thiomorpholinyl)methyl]phenyl]-2-pyridinecarbothioamide], which “% Inhibition of lesion formation” value [1] is on record?
Answer: The value was 32%.

Question: Which “% Inhibition of lesion formation” value [1] does the source give for S=C(Nc1cccc(CN2CCOCC2)c1)c1ccccn1 [Example 8, N-[3-[(4-Morpholinyl)methyl]phenyl]-2-pyridinecarbothioamide] here?
Answer: Its value is 64%.

Question: Which “Protection in the ethanol-induced ulcer model” value [3] does the source give for CC(C)[N+](C)(CCOC(=O)C1c2ccccc2Oc2ccccc21)C(C)C [propantheline bromide] here?
Answer: The value was “do not protect”.

Question: For CN/C(=N/CCSCc1nc[nH]c1C)NC#N [cimetidine], which “Protection in the ethanol-induced ulcer model” value [3] is on record?
Answer: Its value is “do not protect”.

Question: For Fc1ccc(NC(=S)c2ccccn2)cc1Cn1ccnc1 [Example 1, N-[4-fluoro-3-[(1H-imidazol-1-yl)methyl]phenyl]-2-pyridinecarbothioamide], which ED50 [1] is on record?
Answer: The ED50 was 0.88 mg/kg.

Question: With S=C(Nc1ccc(CN2CCCCC2)cc1)c1ccccn1 [Example 7, N-[4-(piperidinylmethyl)phenyl]-2-pyridinecarbothioamide] as the molecule, how does the ED50 [1] read?
Answer: The ED50 was 6.2 mg/kg.

Question: What does the source list for Cl.Cl.O.S=C(Nc1cccc(Cn2ccnc2)c1)c1ccccn1 [Example 5, N-[3-[(1H-Imidazol-1-yl)methyl]phenyl]-2-pyridinecarbothioamide Dihydrochloride Hydrate]?
Answer: ED50 [1]: 2.2 mg/kg; ED50 [2]: 1.9 mg/kg

Question: Which “% Inhibition of lesion formation” value [1] does the source give for CN1CCN(Cc2cccc(NC(=S)c3ccccn3)c2)CC1 [Example 10, N-[3-[(4-methyl-1-piperazinyl)methyl]phenyl]-2-pyridinecarbothioamide dihydrochloride hemihydrate] here?
Answer: Its value is 10%.

Question: Which ED50 [1] does the source give for Fc1ccc(NC(=S)c2ccccn2)cc1CN1CCCCC1 [Example 2, N-[4-Fluoro-3-(piperidinylmethyl)phenyl]-2-pyridinecarbothioamide Hydrochloride] here?
Answer: The ED50 was 2.6 mg/kg.

Question: With N#Cc1cccc(NC(=S)c2ccccn2)c1 [Example 4, N-(3-cyanophenyl)-2-pyridinecarbothioamide] as the molecule, how does the ED50 [1] read?
Answer: The ED50 was 1.6 mg/kg.

Question: With N#Cc1ccc(NC(=S)c2ccccn2)cc1 [Example 3, N-(4-Cyanophenyl)-2-pyridinecarbothioamide] as the molecule, how does the ED50 [1] read?
Answer: Its ED50 is 1.1 mg/kg.

Question: And the ED50 [2]?
Answer: The ED50 was 1.7 mg/kg.
